Measured values: patent US4771060A, “Novel skin-whitening agent” (Teikoku Seiyaku Kabushiki Kaisha, priority 1986, dated 1988)

Key:
[1] = tested on: surface melanism in yellow goldfish; assay: Preventive effect on surface melanism in yellow goldfish; assay type: in vivo, goldfish (Ryukins); settings: then 0.9% NaCl 12 days, 12th day, 5 fish, control 100%
Protocol: (§1) Ryukins [a kind of goldfish (weighing 3-5 g, one group: 5 fish)] were fed in water containing 1 μg/l or 10 μg/l of pionine (No. 1 compound in the above Preparations) for 20 days. The goldfish were then transferred into a water bath filled with water containing 0.9% by weight of NaCl in order to induce melanism and fed for 12 days. As a control group, the fish were fed likewise except no active compound was used. The extent of surface melanism and the activity of tyrosinase in the group administered with pionine were compared with those of the control group.

[2] = tested on: tyrosinase; assay: Determination of tyrosinase activity in scales of treated goldfish; assay type: in vivo, goldfish (Ryukins); settings: scales on 12th day, control 0.06
Protocol: as §1
As samples to be tested, scales were picked from goldfish of each of groups on 12th day. The samples were each homogenized with 1M phosphate buffer (pH 6.8) and centrifuged. As to the supernatant, tyrosinase was determined by a colorimetry according to the procedure of N. H. Horowitz and Pomerantz (cf. Method in Enzymology, XVIIA, 615-626).

[3] = tested on: surface melanism in yellow goldfish; assay: Therapeutic effect on surface melanism in yellow goldfish; assay type: in vivo, goldfish (Ryukins); settings: for goldfish returned to their original yellow surface color: after 12 weeks, control 0%
Protocol: Ryukins (weighing 3-5 g) were fed in a 0.9% NaCl aqueous solution for 12 days to induce surface melanism. The goldfish were grouped into five fish each. In two experiment groups, the fish were fed in a water bath for 12 weeks, during which pionine was add in an amount of 1 μg/l and 10 μg/l, respectively, three times per week. In the control group, the fish were fed in pure water. The recovery from surface melanism of the experiment groups was compared with that of control group.

[4] = tested on: Black popeyed goldfish; assay: Action in normal black-goldfish; assay type: in vivo; settings: 10 μg/l three times per week, after 12 weeks
Protocol: Black popeyed goldfish (each group: 5 fish) were fed in a water bath. In experimental group, pionine was added to the water bath in a concentration of 10 μg/l, three times per week. In the control group, no pionine was added.

[5] = tested on: tyrosinase derived from mushroom; assay: Direct effect on tyrosinase activity (L-DOPA substrate); assay type: biochemical
Protocol: The direct effect of pionine to tyrosinase activity was studied. 0.1 ml of a solution of pionine having various concentrations was mixed with 0.1 ml of 290 unit/ml solution of tyrosinase derived from mushroom (Sigma). […]

[6] = tested on: yellow goldfish; assay: Toxicity in yellow goldfish; assay type: in vivo; settings: 5 mg/l in water for three days, ten yellow goldfish
[7] = Acute toxicity, oral, rats; settings: rat, in vivo, suspension in 0.5% sodium carboxymethylcellulose, 7 days
Protocol: A suspension of pionine in a 0.5% sodium carboxymethylcellulose solution was orally administered to Wistar rats (weighing about 130 g, one group: ten animal) with a stomach sonde. The number of dead rats were counted for 7 days, and LD50 (g/kg) was calculated by van der Werden's method. […] Thus, it is clear that pionine is a compound having an extremely wide safety range, taking into account the above experimental results that it is effective in a concentration of 10 μg/l for preventing and treating melanism of goldfish.

[8] = tested on: stains (chloasma) and pigmentations induced by inflammation; assay: Clinical test, oral pionine; assay type: in vivo, human; set-up: key to Findings on skin: -1: deepened; 0: not changed; +1: faded; +2: completely disappeared
Protocol: A hundred μg of pionine was orally administered to each of three patients having stains (chloasma) and each of three patients having pigmentations induced by inflammation, once a day when the patients were hungry. This test was continued for 6 months. The effect of pionine was evaluated and classified into four classes by the degree of color as follows:
-1: deepened, 0: not changed, +1: faded,
+2: completely disappeared.
Evaluation by the patients themselves is also mentioned therein. Meanwhile, a patch test as to known cosmetics which were used by the patients was made for all patients before the clinical test, and if the result was positive (i.e. the known cosmetics are […]), the use of the cosmetics was prohibited.

Q: Which results are given for CCCCCCCN1C(C)=CSC1=Cc1scc(C)[n+]1CCCCCCC [pionine, 4,4'-dimethyl-3,3'-di-n-heptyl-2,2'-monomethinethiazolocyanine iodide]?
A: fish with surface melanism observed ([1]; 1 μg/l in water for 20 days): 40%; fish with surface melanism observed ([1]; 10 μg/l in water for 20 days): none; tyrosinase activity, ΔOD at 475 nm/mg protein/30 min ([2]; 1 μg/l group): 0.05 /mg protein/30 min; tyrosinase activity, ΔOD at 475 nm/mg protein/30 min ([2]; 10 μg/l group): 0.02 /mg protein/30 min; goldfish returned to their original yellow surface color ([3]; 1 μg/l three times per week): 40%; goldfish returned to their original yellow surface color ([3]; 10 μg/l three times per week): 80%; recovery from surface melanism ([3]; 1 and 10 μg/l groups, within three weeks): not observed; blackness of normal black goldfish versus control [4]: no differences were observed; effect on tyrosinase activity ([5]; addition of 5×10^-2 to 10^-5 % of pionine): did not affect; tyrosinase inhibitory activity ([5]; direct effect, summary statement): no tyrosinase inhibitory activity; ΔOD (at 475 nm) ([5]; pionine 5 × 10^-2 %, 2 min., control 0.250): 0.248; ΔOD (at 475 nm) ([5]; pionine 5 × 10^-2 %, 5 min., control 0.540): 0.540; ΔOD (at 475 nm) ([5]; pionine 5 × 10^-2 %, 10 min., control 0.782): 0.786; ΔOD (at 475 nm) ([5]; pionine 5 × 10^-3 %, 2 min., control 0.250): 0.252; ΔOD (at 475 nm) ([5]; pionine 5 × 10^-3 %, 5 min., control 0.540): 0.544; ΔOD (at 475 nm) ([5]; pionine 5 × 10^-3 %, 10 min., control 0.782): 0.780; ΔOD (at 475 nm) ([5]; pionine 5 × 10^-4 %, 2 min., control 0.250): 0.252; ΔOD (at 475 nm) ([5]; pionine 5 × 10^-4 %, 5 min., control 0.540): 0.540; ΔOD (at 475 nm) ([5]; pionine 5 × 10^-4 %, 10 min., control 0.782): 0.784; ΔOD (at 475 nm) ([5]; pionine 5 × 10^-5 %, 2 min., control 0.250): 0.250; ΔOD (at 475 nm) ([5]; pionine 5 × 10^-5 %, 5 min., control 0.540): 0.538; ΔOD (at 475 nm) ([5]; pionine 5 × 10^-5 %, 10 min., control 0.782): 0.780; abnormality [6]: no abnormality was observed; death of fish [6]: no fish was died; LD50 at 168 h ([7]; female Wistar rats): 500 mg/kg; LD50 at 168 h ([7]; male Wistar rats): 470 mg/kg; patients with positive effect ([8]; 5/6 patients, 100 μg orally once a day, 6 months): 83%; Side effect ([8]; Run No. 1, 100 μg orally once a day): No; Evaluation by patients ([8]; Run No. 1, Chloasma): effective; Findings on skin ([8]; Run No. 1, Chloasma, 100 μg orally once a day, at 4th month): +2; Evaluation by patients ([8]; Run No. 2, Chloasma): not effective; Findings on skin ([8]; Run No. 2, Chloasma, 100 μg orally once a day, at 6th month): 0; Evaluation by patients ([8]; Run No. 3, Chloasma): effective; Findings on skin ([8]; Run No. 3, Chloasma, 100 μg orally once a day, at 5th month): +2; Findings on skin ([8]; Run No. 4, Pigmentation after inflammation, 100 μg orally once a day, at 3rd month): +2; Findings on skin ([8]; Run No. 5, Pigmentation after inflammation, 100 μg orally once a day, at 5th month): +2; Findings on skin ([8]; Run No. 6, Pigmentation after inflammation, 100 μg orally once a day, at 3rd month): +1; side effect in all patients ([8]; six patients, 100 μg orally once a day, 6 months): no side effect was observed
